What was measured:
Test in all cases: relative viability (nuclei count vs DMSO), 5 days (fraction); higher = more cells survive
Zosuquidar + Phenformin = compound: O[C@@H](COc1cccc2ncccc12)CN1CCN([C@@H]2c3ccccc3[C@@H]3[C@H](c4ccccc42)C3(F)F)CC1 [Zosuquidar] + N=C(N)NC(=N)NCCc1ccccc1 [Phenformin] (partner 250 µM)
Method in brief: (§1)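 For relative viability, nuclei counts in treated wells were divided by those in vehicle wells. Lung cancer cell lines had been pin-tool dosed in 1536-well plates the day after seeding and cultured for 5 days, then fixed and stained in one step (final 0.05% Triton X-100, 1% formaldehyde, 1 ug/ml Hoechst) and imaged at 4×. Doses were one drug alone or a fixed anchor-drug dose plus five library-drug doses (not always all listed) in √10 steps, and values are duplicate-plate medians.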

Zosuquidar + Crizotinib = compound: O[C@@H](COc1cccc2ncccc12)CN1CCN([C@@H]2c3ccccc3[C@@H]3[C@H](c4ccccc42)C3(F)F)CC1 [Zosuquidar] + C[C@@H](Oc1cc(-c2cnn(C3CCNCC3)c2)cnc1N)c1c(Cl)ccc(F)c1Cl [Crizotinib] (partner 1 µM)
Method in brief: as §1

Zosuquidar + Luminespib = compound: O[C@@H](COc1cccc2ncccc12)CN1CCN([C@@H]2c3ccccc3[C@@H]3[C@H](c4ccccc42)C3(F)F)CC1 [Zosuquidar] + CCNC(=O)c1noc(-c2cc(C(C)C)c(O)cc2O)c1-c1ccc(CN2CCOCC2)cc1 [Luminespib] (partner 0.01 µM)
Method in brief: as §1

[1] = compound: COc1cc2nccc(Oc3ccc(NC(=O)C4(C(=O)Nc5ccc(F)cc5)CC4)cc3)c2cc1OC [Cabozantinib] + CCNC(=O)c1noc(-c2cc(C(C)C)c(O)cc2O)c1-c1ccc(CN2CCOCC2)cc1 [Luminespib] (partner 0.01 µM)
Method in brief: as §1

Row | Cell Line | relative viability (Zosuquidar + Phenformin; first compound 0.01 µM) | relative viability (Zosuquidar + Phenformin; first compound 0.03162 µM) | relative viability (Zosuquidar + Phenformin; first compound 0.1 µM) | relative viability (Zosuquidar + Phenformin; first compound 0.3162 µM) | relative viability (Zosuquidar + Phenformin; first compound 1 µM) | relative viability (Zosuquidar + Crizotinib; first compound 0.01 µM) | relative viability (Zosuquidar + Crizotinib; first compound 0.03162 µM) | relative viability (Zosuquidar + Crizotinib; first compound 0.1 µM) | relative viability (Zosuquidar + Crizotinib; first compound 0.3162 µM) | relative viability (Zosuquidar + Crizotinib; first compound 1 µM) | relative viability (Zosuquidar + Luminespib; first compound 0.01 µM) | relative viability (Zosuquidar + Luminespib; first compound 0.03162 µM) | relative viability (Zosuquidar + Luminespib; first compound 0.1 µM) | relative viability (Zosuquidar + Luminespib; first compound 0.3162 µM) | relative viability (Zosuquidar + Luminespib; first compound 1 µM) | relative viability ([1]; first compound 0.06325 µM) | relative viability ([1]; first compound 0.2 µM) | relative viability ([1]; first compound 0.6325 µM) | relative viability ([1]; first compound 2 µM) | relative viability ([1]; first compound 0.02 µM)
1 | NCI-H23 | 0.722 | 0.708 | 0.78 | 0.895 | 0.805 | 0.467 | 0.495 | 0.512 | 0.534 | 0.478 | 0.206 | 0.223 | 0.223 | 0.222 | 0.266 | 0.218 | 0.199 | 0.229 | 0.205 | 
2 | NCI-H322M | 0.809 | 0.856 | 0.586 | 0.793 | 0.858 | 0.896 | 0.929 | 0.861 | 0.739 | 0.91 | 0.754 | 0.886 | 0.664 | 0.862 | 0.727 | 1.14 | 0.817 | 0.969 | 0.941 | 0.922
3 | NCI-H2126 | 0.544 | 0.542 |  | 0.539 | 0.532 | 0.92 | 0.987 | 0.911 | 1.04 | 1.07 | 0.93 | 0.909 |  | 0.935 | 0.952 | 0.973 | 0.969 | 0.89 | 1.1 | 0.871
4 | NCI-H647 | 0.531 | 0.39 | 0.453 | 0.592 | 0.462 | 1.03 | 1.09 | 1.03 | 1.14 | 1.1 | 0.116 | 0.165 | 0.181 | 0.142 | 0.177 | 0.138 | 0.264 | 0.251 | 0.368 | 0.155
5 | LU99A | 0.859 | 0.793 | 0.834 | 0.971 | 0.808 | 0.499 | 0.671 | 0.484 | 0.607 | 0.571 | 0.201 | 0.22 | 0.256 | 0.276 | 0.303 | 0.268 | 0.238 | 0.196 | 0.261 | 0.283
6 | NCI-H1666 | 0.542 | 0.577 | 0.571 | 0.584 | 0.521 | 1.02 | 0.975 | 1.18 | 0.986 | 1.08 | 0.966 | 0.978 | 0.945 | 1.01 | 1.08 | 1 | 1.02 | 1.04 | 1.06 | 0.968
7 | NCI-H596 | 0.765 |  | 0.798 | 0.909 | 0.761 | 1.03 | 0.898 | 1.01 | 1.06 | 1.02 | 1.1 |  | 0.804 | 0.983 | 0.931 | 1.26 | 1.02 | 1.08 | 0.907 | 0.905

— the supplement of paper PMC10307832
